Experimental data: US20260284214A1, “EXATECAN DERIVATIVE AND ANTIBODY-DRUG CONJUGATE THEREOF” (priority 2023, published 2026)
Like-named read-outs stand apart in the source and are kept apart here.

Key:
[1] = Metabolism stability test in liver microsomes; assay type: in vitro ADME; details: human liver microsomes; for CLint scaled / half-life / microsomal CLint: pH 7.4; for microsomal CLint: read-out: CLint(mic)
Method: The experiment was intended to detect metabolic stabilities of the compounds in the present disclosure in human liver microsomes.
• Human Liver Microsomes (Corning, Cat No. 452117)
Experimental method: each incubation system contained a phosphate buffer solution (PBS, pH 7.4), a liver microsomal protein, a to-be-tested sample (acetonitrile solution) and NADPH, incubated in water bath at 37° C., and the same volume of cold acetonitrile (comprising an internal standard) was added 0, 5, 15, 30, 45 and 60 minutes after reaction respectively to terminate the reaction. The sample solution was centrifuged, 80 μL of the supernatant was taken and 240 μL of ultrapure water was added, and the remaining amount of the prototype substrate was detected by LC-MS/MS method. The negative control was incubated with a human liver microsome NCF group (without NADPH).

[2] = In-vivo pharmacokinetics of compounds in SD rats; details: intravenous; for clearance / half-life / AUC(0-t) at 8 h / Vd: rat, plasma; for AUC(0-t) at 8 h: read-out: AUC0-8 h; for Vd: read-out: Vz
Method: SD rats were taken as test animals to study in-vivo pharmacokinetics behaviors after injection administration of the compounds of the present disclosure to male and female SD rats at dosages of 1 mg/kg and 3 mg/kg.
• Species: male and female SD rats (2 female rats and 2 male rats/group) • Grade: SPF grade • Weight: about 200 g • Source: Hunan SJA Laboratory Animal Co., Ltd.
Male and female SD rats were injected with the test sample solution, and Compound 2 of the example and the Dxd were given in a dosage of 1 mg/kg and a dosage volume of 4 mL/kg. Compound 3 of the example and the Dxd were given in a dosage of 3 mg/kg and a dosage volume of 5 mL/kg.
Preparation of test sample solution: the test sample was dissolved with a solvent (10% DMSO-60% PEG400-30% (20% HP-β-CD-water)), and DMSO, PEG 400 and 20% HP-β-CD-water were added sequentially during preparation.
0 before administration, and 5 minutes, 15 minutes, 0.5 hours, 1 hour, 2 hours, 3 hours, 5 hours and 8 hours after administration.
0.2 mL of blood was collected and placed into an EDTA-2K anticoagulant tube. The anticoagulant tube was turned upside down gently to fully mix the anticoagulant (EDTA-2K) with the blood, and then immediately placed into wet ice, and plasma was centrifuged for separation within 1 hour after blood collection at 4° C. and 6800 g for 6 minutes. After centrifugation, the plasma was separated and stored in an ultra-low-temperature refrigerator as soon as possible until sample analysis.

[3] = molecular target: hERG potassium channel (Homo sapiens, UniProt Q12809); test: hERG experiment, manual patch clamp; assay type: cell-based; details: HEK-293 cells stably expressing hERG; for inhibition at 10 µM: human, read-out: hERG current inhibition rate % (Mean ± SE, n = 2)
Sequence of hERG potassium channel (Q12809 whole entry): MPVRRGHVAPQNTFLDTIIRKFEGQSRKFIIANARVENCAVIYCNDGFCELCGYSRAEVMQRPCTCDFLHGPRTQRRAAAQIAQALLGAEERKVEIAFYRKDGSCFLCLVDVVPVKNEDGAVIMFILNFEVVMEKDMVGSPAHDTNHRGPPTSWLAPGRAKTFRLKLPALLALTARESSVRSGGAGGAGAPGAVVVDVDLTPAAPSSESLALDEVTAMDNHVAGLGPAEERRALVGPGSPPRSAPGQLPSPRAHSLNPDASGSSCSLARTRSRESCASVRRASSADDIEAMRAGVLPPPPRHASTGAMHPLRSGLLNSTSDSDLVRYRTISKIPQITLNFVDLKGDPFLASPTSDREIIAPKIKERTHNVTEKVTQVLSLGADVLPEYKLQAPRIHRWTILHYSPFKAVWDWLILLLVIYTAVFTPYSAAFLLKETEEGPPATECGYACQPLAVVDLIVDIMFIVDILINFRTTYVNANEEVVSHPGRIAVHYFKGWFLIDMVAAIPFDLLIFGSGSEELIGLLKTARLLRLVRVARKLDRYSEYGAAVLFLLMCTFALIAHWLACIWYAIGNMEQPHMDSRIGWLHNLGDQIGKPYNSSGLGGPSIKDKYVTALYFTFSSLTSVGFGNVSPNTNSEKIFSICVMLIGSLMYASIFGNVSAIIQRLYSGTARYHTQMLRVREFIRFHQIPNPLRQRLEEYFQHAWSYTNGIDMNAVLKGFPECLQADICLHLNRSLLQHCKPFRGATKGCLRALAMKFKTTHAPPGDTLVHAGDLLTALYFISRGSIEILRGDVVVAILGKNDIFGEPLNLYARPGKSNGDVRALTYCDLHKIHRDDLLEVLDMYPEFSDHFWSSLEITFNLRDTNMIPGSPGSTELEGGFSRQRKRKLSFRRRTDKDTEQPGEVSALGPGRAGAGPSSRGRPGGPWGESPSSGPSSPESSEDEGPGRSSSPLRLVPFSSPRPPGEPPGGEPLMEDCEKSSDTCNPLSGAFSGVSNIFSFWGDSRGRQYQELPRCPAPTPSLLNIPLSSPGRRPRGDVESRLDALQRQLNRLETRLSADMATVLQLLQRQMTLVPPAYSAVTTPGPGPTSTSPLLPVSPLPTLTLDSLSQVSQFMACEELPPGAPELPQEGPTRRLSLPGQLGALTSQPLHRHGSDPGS
Method: Inhibitory effects of the compound of Example 2, the compound of Example 3 and Dxd on an hERG potassium channel were studied by a manual patch clamp technique (a gold standard of hERG safety evaluation), and the risk of ventricular repolarization toxicity caused was evaluated.
The weighed test sample was prepared into a 10 mM stock solution with DMSO, and then the stock solution of the test object was diluted into 3.33 mM intermediate dilution with DMSO. Then, 30 μL of the dilution was added into 10 mL of extracellular fluid to prepare 10 μM working solution, it was ensured that a DMSO content was 0.3%, then 50 μL of F68 was added to the extracellular fluid to enhance a solubility of the test object, and an F68 concentration was 0.5%. Solutions at all concentrations were subjected to ultrasound treatment for 20 minutes. The solubility of the sample was visually observed, and there was no visible precipitation in the 10 μM to-be-tested solution of the test object.
An HEK-293 cell line stably expressing the hERG potassium channel was adopted, and hERG potassium channel cells were purchased from Creacell Company (article number: A-0320). Cell culture method:
The HEK-293 cell line stably expressing the hERG potassium channel was cultured in a DMEM culture medium containing 10% fetal bovine serum and 0.8 mg/mL G418 at a culture temperature of 37° C. under a carbon dioxide concentration of 5%.
Cell passage: the old culture medium was removed, and the cells were washed once with PBS, then 1 mL of TrypLE™ Express solution was added, and the mixture was incubated at 37° C. for about 0.5 minutes. When the cells were separated from a dish bottom, about 5 mL of complete culture medium preheated at 37° C. was added. A cell suspension was gently blown with a straw to separate the aggregated cells. The cell suspension was transferred to a sterile centrifuge tube and centrifuged at 1000 rpm for 5 minutes to collect the cells. […]
An inhibitory effect of the test object on the hERG channel was detected by the manual patch clamp technique.

## CC[C@@]1(O)C(=O)OCc2c1cc1n(c2=O)Cc2c-1nc1cc(F)c(C)c3c1c2[C@@H](NC(=O)CO)CC3 [Dxd]
[1]
  CLint scaled: 12.3 mL/min/kg
  microsomal CLint: 13.6 µL/min/mg
[1]; NADPH, 37° C.
  half-life: 1.69 h
[2]; 1 mg/kg
  clearance: 69.2 mL/min/kg
  half-life: 1.3 h
  AUC(0-t) at 8 h: 240 ng·h/mL
  Vd: 7.96 L/kg
[2]; 3 mg/kg
  clearance: 65.7 mL/min/kg
  half-life: 1.96 h
  AUC(0-t) at 8 h: 760 ng·h/mL
  Vd: 10.9 L/kg
[3]
  inhibition at 10 µM: 10.3%

## C#CCN(CCO)C(=O)N[C@H]1CCc2c(C)c(F)cc3nc4c(c1c23)Cn1c-4cc2c(c1=O)COC(=O)[C@]2(O)CC [Example 2]
[1]
  CLint(liver): 20.0 mL/min/kg
  CLint(mic): 22.2 µL/min/mg
[1]; NADPH, 37° C.
  T1/2: 1.04 h
[2]; 1 mg/kg
  AUC0-8 h: 77.9 ng·h/mL
  CL: 12700 mL/min/kg
  T1/2: 1.59 h
  Vz: 29 L/kg
[3]; 10 μM
  hERG current inhibition rate % (Mean ± SE, n = 2): 2.89% ± 1.86%

## C=CCN(CCO)C(=O)N[C@H]1CCc2c(C)c(F)cc3nc4c(c1c23)Cn1c-4cc2c(c1=O)COC(=O)[C@]2(O)CC [Example 3, 1-allyl-3-((1S,9S)-9-ethyl-5-fluoro-9-hydroxy-4-methyl-10,13-dioxo-2,3,9,10,13,15-hexahydro-1H,12H-benzo[de]pyrano[3′,4′:6,7]indolizino[1,2-b]quinolin-1-yl)-1-(2-hydroxyethyl)urea]
[1]
  CLint scaled: 23.7 mL/min/kg
  microsomal CLint: 26.4 µL/min/mg
[1]; NADPH, 37° C.
  half-life: 0.877 h
[2]; 3 mg/kg
  clearance: 124 mL/min/kg
  half-life: 1.73 h
  AUC(0-t) at 8 h: 405 ng·h/mL
  Vd: 18.7 L/kg
[3]
  inhibition at 10 µM: 15.8%
